These results are taken from patent US6190848A, “Color photographic element containing ballasted triazole derivative and inhibitor releasing coupler” (priority 1999, dated 2001).

Test [1] is described as follows: Single layer film element contrast (gamma) reduction by DI(A)R couplers, KODAK FLEXICOLOR C-41. Conditions: DIR tested at 0.055 mmol/m^2, relative to non-inhibitor containing check. From the text:
The mild inhibitor fragments that are used in this invention are defined as those that cause less than a 45% gamma reduction, or more preferably less than a 40% gamma reduction, relative to a non-inhibitor containing check when coated as the following single layer film element on a cellulose triacetate film support (coverages are in g/m^2):
Overcoat Gelatin at 2.79 and 0.02 bis-vinylsulfonemethylether
Imaging Layer Gelatin at 2.79
Magenta Image Coupler M-1 (dispersed at 80% by
weight in tricresyl phosphate and 20% by weight
N,N-dibutyl-2-butoxy-5-t-octylaniline) at 0.692
DIR being tested at 0.055 mmol/m^2 ( dispersed in twice
its weight in N,N-dibutyllauramide)
Green sensitized AgBrI at 1.08
Samples of each element were given a stepped exposure and processed in the KODAK FLEXICOLOR™ (C-41) process as described in British Journal of Photography Annual, 1988, pp 196-198. Contrast of the elements was determined using the maximum slope between any two density points.

Test [2] can be described thus: Bilayer photographic element: interimage (Cg/Cb+g) and relative green sensitivity. Conditions: for Cg /Cb+g (interimage ratio): Table II, IDIR-2 in blue layer, IEM or CIEM at 7.2×10^-3 mmol/m^2; for interimage effect: bilayer, --N--H group removed. The protocol:
Bilayer photographic elements were prepared by coating the following layers on a cellulose triacetate film support (coverages are in g/m^2). Unless otherwise noted, all comparative and inventive compounds were dispersed in twice their own weight of N,N-dibutyllauramide:
Layer 1 (Antihalation Layer): black colloidal elemental silver at 0.34 and gelatin at2.41.
Layer 2 (Receiver Layer): gelatin at 2.79, CDIR-2 at 0.03, coupler M-1 (dispersed as described previously) added at 0.045, comparison material (CIEM) or IEM added at 7.2×10^-3 mmol/m^2 (this corresponds to 1.67 mmol per mole silver as AgBr or 0.96 mmol per mole of silver) dispersed in twice its own weight of N,N-dibutyllauramide and 0.81 green sensitized AgIBr tabular emulsion.
Layer 3 (Interlayer): gelatin at 0.64, ILS-1 at 0.11 and FD-1 at 0.11.
Layer 4 (Causer Layer): gelatin at 2.79, coupler Y-1 at 0.91, 0.79 blue sensitized AgIBr tabular emulsion and the DIR at 0.11 mmol/m^2.
Layer 5 (Overcoat): gelatin at 2.79 and 0.02 bis-vinylsulfonemethylether.
Samples of each element were given a stepped exposure of either green light only or blue and green light combined and processed in the KODAK FLEXICOLOR (C-41) process as described in British Journal of Photography Annual, 1988, pp196-198. Contrast of the elements was determined using the maximum slope between any two density points. In this test, the ratio of the contrast of the green only exposure to the contrast of the green of a blue and green exposure (Cg /Cb+g) is a measure of the interimage. A higher ratio means more inhibition originating from the blue and affecting the green record.
Another set of bilayer experiments were generated in a similar manner to show the effect of IEM laydown (as mmol per mol silver) and DIR variations.

Regarding `CCCCCCCCCCCCCCOc1ccccc1NC(=O)c1cc(Oc2ccc(CSc3nnnn3Cc3ccc(OC)cc3)cc2[N+](=O)[O-])c2ccccc2c1O` [CDIR-1], the “% Contrast Reduction” value in test [1] is -55.4%. On to `CCC(Oc1ccc(C(C)(C)CC)cc1C(C)(C)CC)C(=O)Nc1ccc(N2N=C(N3CCCC3)C(Sc3nnnn3-c3ccccc3)C2=O)cc1` (stereo not shown) [CDIR-2], for which the “% Contrast Reduction” value in test [1] is recorded as -67.1%. `CCCCCCCCCCCCCCOc1ccccc1NC(=O)c1cc(Oc2ccc([N+](=O)[O-])cc2CN(C(=O)Sc2nnnn2-c2ccccc2)C(C)C)c2ccccc2c1O` [CDIR-3]: the “% Contrast Reduction” value in test [1] is -75.7%.

Turning to `CCCCCCCCCCCCCCOc1ccccc1NC(=O)c1cc(Oc2ccc(CSc3nnnn3-c3ccccc3)cc2[N+](=O)[O-])c2ccccc2c1O` [CDIR-4], the “% Contrast Reduction” value in test [1] was -77.1%. Still for that read-out and setting: for `CCCCCCCCCCCCCCOc1ccccc1NC(=O)c1cc(Oc2ccc(CSc3nnnn3-c3ccccc3)cc2[N+](=O)[O-])c2ccccc2c1O` [CDIR-5] the value was -70.5%; for `CCCCCCCCCCCCCCOc1ccccc1NC(=O)c1cc(Sc2nnnn2-c2ccccc2)c2ccccc2c1O` [CDIR-6], -75.4%. The same measure, in the same setting: for `CCCCCCCCCCCCCCCCS(=O)(=O)Nc1ccc(Cl)c(NC(=O)C(Oc2ccc([N+](=O)[O-])cc2CN(CC)C(=O)Sc2nnnn2-c2ccccc2)C(=O)C(C)(C)C)c1` (stereo not shown) [CDIR-7] the value was -63.9%; for `CCCCCCOC(=O)c1nn(C2C(=O)N(c3ccc(NC(=O)C(CC)Oc4ccc(C(C)(C)CC)cc4C(C)(C)CC)cc3)N=C2C)nc1C` (stereo not shown) [CDIR-8], -49.2%. The same measure, in the same setting: for `CCCCCCCCCCC(Oc1ccc(S(=O)(=O)c2ccc(O)cc2)cc1)C(=O)Nc1ccc(N2N=C(C)C(n3nc(C)c(C(=O)OCCCCCC)n3)C2=O)cc1` (stereo not shown) [CDIR-9] the value was -50.1%; for `CCCCCCCCCCCCCCCCS(=O)(=O)Nc1ccc(Cl)c(NC(=O)C(C(=O)C(C)(C)C)n2nc(C)c(C(=O)OCCCCCC)n2)c1` (stereo not shown) [CDIR-10], -53.8%; for `CCCCCCCCCCCCCCCCS(=O)(=O)Nc1ccc(Cl)c(NC(=O)C(C(=O)C(C)(C)C)n2ncc(SCC(=O)OCCCCCC)n2)c1` (stereo not shown) [CDIR-11], -58.6%. In the case of `CCCCCCCC(=O)Nc1ccc2[nH]nnc2c1` [CIEM-1], the “Cg /Cb+g (interimage ratio)” value in test [2] came to 1.25. The same measure, in the same setting: for `CCCCC(CC)CNC(=O)c1ccc2[nH]nnc2c1` (stereo not shown) [CIEM-2] the value was 1.26. On the same count and under the same terms, then `CCCCCCCCCOC(=O)c1nc[nH]n1` [CIEM-3], with 1.23; and `CCCCCCSCCOC(=O)c1nc[nH]n1` [CIEM-4], with 1.19.

In the case of `CCCCCCCCc1nc2ccccc2[nH]1` [CIEM-5], the “Cg /Cb+g (interimage ratio)” value in test [2] is on record as 1.19. On the same count and under the same terms, then `O=S(=O)(NCCc1ccccc1)c1ccc2[nH]nnc2c1` [CIEM-6], with 1.24; and `CCCSCCCOC(=O)c1ccc2[nH]nnc2c1` [CIEM-7], with 1.26. On to `CCCCCCCCCCOC(=O)CSc1nnc[nH]1` [CIEM-8], for which the “Cg /Cb+g (interimage ratio)” value in test [2] came out at 1.22. Still for that read-out and setting: for `O=C(Nc1cccc(Oc2ccccc2)c1)c1ccc2[nH]nnc2c1` [CIEM-9] the value was 1.30; for `O=C(c1ccc2[nH]nnc2c1)N1CCCc2ccccc21` [CIEM-10], 1.18; for `CCCCc1ccc(NC(=O)c2ccc3[nH]nnc3c2)cc1` [CIEM-11], 1.26. On the same count and under the same terms, for `O=C(Oc1ccccc1)c1ccc2[nH]nnc2c1` [CIEM-12] the value was 1.24. For `CCC(C)(C)c1ccc(OCCCCC(=O)Nc2ccc3c(c2)nnn3C(=O)N2CCOCC2)c(C(C)(C)CC)c1` [CIEM-13], in test [2], the “Cg /Cb+g (interimage ratio)” value is 1.30 and the “interimage effect” value is “the effect is insufficient”. In the same order, the values of `CCC(C)(C)c1ccc(OCCCCC(=O)Nc2ccc3c(c2)nnn3C)c(C(C)(C)CC)c1` [CIEM-14] are 1.31 and “the effect is insufficient”. With `CCCCCCCCCCCCCCCc1cccc(OCCCCNC(=O)c2ccc3[nH]nnc3c2)c1` [CIEM-15], the “Cg /Cb+g (interimage ratio)” value in test [2] was determined as 1.26.

As to `CCCCCCCCCCCCSc1nc2ccccc2[nH]1` [CIEM-16], the “Cg /Cb+g (interimage ratio)” value in test [2] stood at 1.27. The same measure, in the same setting: for `CCC(C)(C)c1ccc(OCCCCNC(=O)CSc2nc3ccccc3[nH]2)c(C(C)(C)CC)c1` [CIEM-17] the value was 1.23.

`CCCCCCCCCCCCCCCCS(=O)(=O)Nc1cc(CSc2nnnn2CC(=O)OCCC)ccc1Oc1cc(C(N)=O)c(O)c2ccccc12` [IDIR-1]: the “% Contrast Reduction” value in test [1] is given as -34.5%. Still for that read-out and setting: for `CCCCCCCCCCCCCCCCS(=O)(=O)Nc1ccc(Cl)c(NC(=O)C(Oc2ccc([N+](=O)[O-])cc2CN(CC)C(=O)Sc2nnnn2CC(=O)OCCC)C(=O)C(C)(C)C)c1` (stereo not shown) [IDIR-2] the value was -25.3%; for `CCCCCCCCCCCCOc1ccc(C)cc1NC(=O)c1cc(Oc2ccc(CSc3nnnn3CC(=O)OCCC)cc2[N+](=O)[O-])c2ccccc2c1O` [IDIR-3], -24.5%.

`CCCOC(=O)Cn1nnnc1SC1C(=O)N(c2ccc(NC(=O)C(CC)Oc3ccc(C(C)(C)CC)cc3C(C)(C)CC)cc2)N=C1N1CCCC1` (stereo not shown) [IDIR-4]: the “% Contrast Reduction” value in test [1] is listed as -22.6%. On the same count and under the same terms, for `CCCCCCCCCCCCOC(=O)C(C)OC(=O)c1ccc(Cl)c(NC(=O)C(C(=O)Nc2cc(C(=O)OC(C)C(=O)OCCCCCCCCCCCC)ccc2Cl)n2nnc3cc(Cl)c(Cl)cc32)c1` (stereo not shown) [IDIR-7] the value was -20.0%; for `CCCCCCCCCCCCCCOc1ccccc1NC(=O)c1cc(Sc2nnnn2CC)c2ccccc2c1O` [IDIR-8], -2.4%. As for `CCCCCCCCCC(=O)Nc1ccc2[nH]nnc2c1` [IEM-B], the “Cg /Cb+g (interimage ratio)” value in test [2] was 1.39.

With `CCCCCCCCCCCC(=O)Nc1ccc2[nH]nnc2c1` [IEM-C], the “Cg /Cb+g (interimage ratio)” value in test [2] is 1.64.

Turning to `CCCCCCCCCCC(Oc1ccc(S(=O)(=O)c2ccc(O)cc2)cc1)C(=O)Nc1ccc2[nH]nnc2c1` (stereo not shown) [IEM-D], the “Cg /Cb+g (interimage ratio)” value in test [2] amounted to 1.49. On the same count and under the same terms, for `CCCCCCCCCCCCSc1nc[nH]n1` [IEM-H] the value was 1.44.
